# Key:
# adBNST neurons [1] = assay: Ex vivo slice voltage-clamp recording of light-evoked EPSCs and IPSCs (ChR2 in BLA afferents); format: cell-based, mice; settings: bath application 100 μM picrotoxin; n=4
# Experimental: For slice physiology in combination with optogenetics, 3-4 week old male wild-type mice were injected with AAV-CaMKIIa::ChR2-eYFP into the BLA, or male Drd1a-Cre mice were injected with AAV-EFla::DIO-ChR2(H134R)-eYFP into the ovBNST. After a month, acute 300 μm coronal slices were obtained by transcardially perfusing ice-cold sucrose cutting solution (in mM; 11 D-glucose, 234 sucrose, 2.5 KCl, 1.25 NaH2PO4, 10 MgSO4, 0.5 CaCl2, 26 NaHCO3) and slicing in the same solution using a vibratome (VT1000S; Leica, Buffalo Grove, Ill., USA). Slices were recovered in oxygenated artificial cerebrospinal fluid (aCSF; in mM, 123 NaCl, 26 NaHCO3, 3 KCl, 1.25 NaH2PO4, 1 MgCl2, 2 CaCl2, and 11 glucose) at 32° C. for one hour. […]
# For the blue light delivery, light was emitted from a 300 W broad-wavelength xenon lamp source (DG-4, Sutter Instruments, Novato, Calif., USA), band-pass filtered at 470±20 nm (Semrock; Rochester, N.Y., USA), passed through additional neutral density filters (ThorLabs; Newton, N.J., USA) and coupled to the fluorescence port of the microscope. […]
# Voltage-clamp recordings were made at both −70 mV to isolate EPSCs, and at 0 mV to isolate IPSCs. […] Currents were filtered at 2 kHz, digitized at 50 kHz, and recorded to disk using pClamp10 software (Molecular Devices). […]
# adBNST neurons [2] = assay: Calcium imaging (OGB-1) of persistent activity in adBNST slice after electrical stimulation; format: cell-based, mice; settings: 100 μM APV, then 10 μM NBQX added; N (all cells) 277 for APV, 279 for NBQX + APV
compound,measurement,setting,value
picrotoxin,light-evoked IPSCs,adBNST neurons [1],blocked
"NC(CCCP(=O)(O)O)C(=O)O (centres unmarked) [APV, 2-amino-5-phosphonopentanoic acid]",N (number of cells activated after stimulation),adBNST neurons [2],61

# From patent US10974064B2, “Optogenetic control of behavioral state” (The Board of Trustees of the Leland Stanford Junior …, priority 2013, dated 2021)
